From PMC10380083, “Synthesis of Prostate-Specific Membrane Antigen-Targeted Bimodal Conjugates of Cytotoxic Agents and Antiandrogens and Their Comparative Assessment with Monoconjugates” (International Journal of Molecular Sciences, 2023)
Like-named read-outs stand apart in the source and are kept apart here. *1 amine or outer side, *2 acyl side, *3 side chain or, on linkers, in order; H or OH if unused. Where a SMILES comes first, the peptide text is derived from it. [ ]: non-standard residue; d: D form. The star is where a group is joined. GluureaLys(ε-3-ClBenzyl) = O=C(O)CC[C@H](NC(=O)N[C@@H](CCCCN(Cc1cccc(Cl)c1)*)C(=O)O)C(=O)O; Dolaproine = CO[C@@H]([C@@H]1CCCN1)[C@@H](C)C(=O)O; Dil = CC[C@H](C)[C@H](NC)[C@@H](CC(=O)O)OC; X2 = O=C(CCCc1cn(CCCN[*:1])nn1)[*:2]; PABC = O=C(OCc1ccc(N[*:1])cc1)[*:2]; X1 = C[C@@H](N*)[C@@H](O)c1ccccc1; Cit = NC(=O)NCCC[C@H](N)C(=O)O; Suc = O=C(CCC(=O)[*:2])[*:1]; NMeV = CN[C@H](C(=O)O)C(C)C; Ahx = NCCCCCC(=O)O

Assays:
[1] = Body weight, general condition and mortality in the antitumor efficacy study; settings: i.v. 132.3 nM/kg x3
Description: Animal body weight data are presented in Table S2 in the electronic supplementary materials.
To study the antitumor efficacy, conjugates were administered intravenously at a dose of 132.3 nM/kg to tumor-bearing mice three times at five-day intervals; administration was started 7−8 days after cell inoculation, and the tumor size was 70−90 mm^3. As a control substance, 0.9% sodium chloride solution was used. Experimental groups included five animals each. […] The mixture was dissolved in DMSO (5% of final solution) and diluted with hemodesum (30% low-molecular-weight polyvinylpyrrolidone (Mw = 8000 ± 200) saline infusion solution). The presence of tumors and their sizes, as well as the body weights of the mice, were recorded every five days during the observation of the animals. The antitumor effect was assessed by comparing the tumor volumes in the experimental and control groups as well as the amount of tumor growth inhibition (TGI, %). […]
(§1) 3.2.1. In vivo evaluation of antitumor efficacy […]
(§2) intravenously at a dose of 132.3 nM/kg to tumor-bearing mice three times at 5-day intervals, the administration was started 7-8 days after cell inoculation to animals, tumor size was 70-90 mm3.
(§3) A 0.9% sodium chloride solution was used as a control substance. The experimental groups […]
(§4) The presence of tumor masses and their size, as well as the body weight of the mice, were recorded every 5 days during observation. In accordance with humane principles, animals were euthanized by placing the mice in a CO2 inhalation chamber (ZOONLAB GmbH, Germany).
Conjugate Method of injection Dose Number of animals 22Rv1 PC-3 […]
3.4. In vivo Efficacy Evaluation
Days after tumor implantation / mass± error, g
Conjugate 7 day 12 day 17 day […]
injection) injection) injection)
Human prostate carcinoma 22Rv1
Human prostate adenocarcinoma PC-3
Table S3. Tumor growth dynamics of 22Rv1 and PC-3 in mice with intravenous triple injection of […]
ate Days after tumor implantation / V±m, mm3

[2] = system: 22Rv1 human prostate carcinoma xenograft; settings: 22Rv1 xenograft; for tumor volume V±m: i.v. triple injection, single dose 132.3 nM/kg; for Tumor growth inhibition: i.v. 132.3 nM/kg three times
Description: (§5) We carried out in vivo studies of the efficacy of the obtained bimodal conjugates. […] Also, conjugate I (Figure 5) was used as a reference compound. An isotonic (0.9%) sodium chloride solution was used as a negative control. Studies were carried out in xenograft models of 22Rv1 human prostate carcinoma and PC-3 prostate adenocarcinoma in immunodeficient Balb/c nude mice (male).
(§6) Two cell lines were used: human prostate carcinoma 22Rv1 and prostate adenocarcinoma PC-3 (ATCC collection). Cells were cultured in 75 cm^2 vials (Costar, Washington, DC, USA) in RPMI-1640 medium (PanEco, Russia) with the addition of 2 mM L-glutamine (PanEco, Russia) and 10% fetal calf serum (HyClone, Logan, UT, USA) under standard conditions of cultivation (in a humidified atmosphere at 37 °C and 5% CO2). Cells of 6–10 passages were used to inoculate the animals. Cell suspension was prepared with a concentration of 5 × 10^6 cells in 0.05 mL of the 22Rv1 medium and in 0.1 mL of the PC-3 medium. 22Rv1 cells were inoculated into animals in Matrigel (BD Matrigel Basement Membrane Matrix, BD Biosciences, San Jose, CA, USA). Manipulations with Matrigel were performed on a refrigerated plate using precooled materials, tubes and instrumentation. For animal administration, 50 μL of the cell suspension (5 × 10^6 cells) was transferred to a chilled tube containing 50 μL of Matrigel; after mixing, the cellular material (final volume of 100 μL) was injected subcutaneously into the groin area of the animal. To obtain subcutaneous xenograft PC-3, a 5 × 10^6 suspension of tumor cells was inoculated subcutaneously into the inguinal cavity of male mice in a volume of 0.1 mL.
(§7) To study the antitumor efficacy, conjugates were administered intravenously at a dose of 132.3 nM/kg to tumor-bearing mice three times at five-day intervals; administration was started 7−8 days after cell inoculation, and the tumor size was 70−90 mm^3. As a control substance, 0.9% sodium chloride solution was used. Experimental groups included five animals each. […] The mixture was dissolved in DMSO (5% of final solution) and diluted with hemodesum (30% low-molecular-weight polyvinylpyrrolidone (Mw = 8000 ± 200) saline infusion solution). The presence of tumors and their sizes, as well as the body weights of the mice, were recorded every five days during the observation of the animals. The antitumor effect was assessed by comparing the tumor volumes in the experimental and control groups as well as the amount of tumor growth inhibition (TGI, %).
(§8) Tumor volume was calculated using Formula (1):V = d1 × d2 × d3 × 0.52(1) where d1, d2 and d3 are the three mutually perpendicular dimensions of the tumor. […]
as §1, §2, §3, §4

[3] = system: PC-3 prostate adenocarcinoma xenograft; settings: PC-3 xenograft; for tumor volume V±m: i.v. triple injection, single dose 132.3 nM/kg; for Tumor growth inhibition: i.v. 132.3 nM/kg three times
Description: as §5, §6, §7, §8, §1, §2, §3, §4

[4] = 7 day after tumor implantation (1st injection)
[5] = 12 day after tumor implantation (2nd injection)
[6] = 17 day after tumor implantation (3rd injection)
[7] = 33 day after tumor implantation
[8] = 37 day after tumor implantation
[9] = days after the start of treatment: 16
[10] = days after the start of treatment: 20

CC[C@H](C)[C@@H]([C@@H](CC(=O)N1CCC[C@H]1[C@H](OC)[C@@H](C)C(=O)N[C@H](C)[C@@H](O)c1ccccc1)OC)N(C)C(=O)[C@@H](NC(=O)[C@H](C(C)C)N(C)C(=O)OCc1ccc(NC(=O)[C@H](CCCNC(N)=O)NC(=O)[C@@H](NC(=O)CCCc2cn(CCCNC(=O)[C@H](Cc3ccc(O)cc3)NC(=O)[C@H](Cc3ccccc3)NC(=O)CCC(=O)NCCCCCC(=O)N(CCCC[C@H](NC(=O)N[C@@H](CCC(=O)O)C(=O)O)C(=O)O)Cc3cccc(Cl)c3)nn2)C(C)C)cc1)C(C)C [I, reference compound] ({GluureaLys(ε-3-ClBenzyl)-Ahx-Suc}-FY[X2]V[Cit][PABC][NMeV]V[Dil][Dolaproine]-X1)
body weight, mass ± error ([1]; 22Rv1 xenograft mice, 7 day after tumor implantation (1st injection)): 23.4 ± 0.8 g
body weight, mass ± error ([1]; 22Rv1 xenograft mice, 12 day after tumor implantation (2nd injection)): 23.9 ± 1.2 g
body weight, mass ± error ([1]; 22Rv1 xenograft mice, 17 day after tumor implantation (3rd injection)): 23.5 ± 1.7 g
body weight, mass ± error ([1]; 22Rv1 xenograft mice, 22 day after tumor implantation): 23.4 ± 1.5 g
body weight, mass ± error ([1]; 22Rv1 xenograft mice, 27 day after tumor implantation): 23.2 ± 1.4 g
body weight, mass ± error ([1]; 22Rv1 xenograft mice, 33 day after tumor implantation): 23.2 ± 1.6 g
body weight, mass ± error ([1]; 22Rv1 xenograft mice, 37 day after tumor implantation): 23.4 ± 1.5 g
body weight, mass ± error ([1]; PC-3 xenograft mice, 7 day after tumor implantation (1st injection)): 22.4 ± 2.1 g
body weight, mass ± error ([1]; PC-3 xenograft mice, 12 day after tumor implantation (2nd injection)): 22.8 ± 1.8 g
body weight, mass ± error ([1]; PC-3 xenograft mice, 17 day after tumor implantation (3rd injection)): 22.4 ± 1.6 g
body weight, mass ± error ([1]; PC-3 xenograft mice, 22 day after tumor implantation): 22.8 ± 1.4 g
body weight, mass ± error ([1]; PC-3 xenograft mice, 27 day after tumor implantation): 23.0 ± 1.3 g
body weight, mass ± error ([1]; PC-3 xenograft mice, 33 day after tumor implantation): 23.2 ± 1.4 g
body weight, mass ± error ([1]; PC-3 xenograft mice, 37 day after tumor implantation): 23.1 ± 1.3 g
tumor volume V±m [2, 4]: 78.3±16.3 mm3
tumor volume V±m [2, 5]: 85.4±25.5 mm3
tumor volume V±m [2, 6]: 92.6±34.8 mm3
tumor volume V±m ([2]; 22 day after tumor implantation): 147.7 mm3
tumor volume V±m [2, 7]: 419.5 mm3
tumor volume V±m [2, 8]: 824.4 mm3
Tumor growth inhibition ([2]; days after the start of treatment: 1): 77.4%
Tumor growth inhibition [2, 9]: 80.1%
Tumor growth inhibition [2, 10]: 71.0%
tumor volume V±m [3, 4]: 80.3±4.5 mm3
tumor volume V±m [3, 5]: 92.6±14.8 mm3
tumor volume V±m [3, 6]: 128.9 mm3
tumor volume V±m [3, 7]: 1059.1 mm3
tumor volume V±m [3, 8]: 1855.5 mm3
Tumor growth inhibition [3, 9]: 37.2%
Tumor growth inhibition [3, 10]: 21.1%
TGI, did not exceed ([3]; i.v. 132.3 nM/kg three times at five-day intervals, male Balb/c nude mice): ≤ 37.7%
